# Results published in patent publication US9187435B2, “Bridged Spiro[2.4]heptane ester derivatives” (Actelion Pharmaceuticals Ltd., priority 2010, dated 2015).
# Counter-ions that a name gives are not always drawn.
# Biological target: T1, human ALX receptor (Homo sapiens, UniProt P25090)
# T1 construct: expressed in transfected cells; host or cells: HEK293 (HEK293-hALXR-Gα16)
# T1 sequence (P25090 1-351): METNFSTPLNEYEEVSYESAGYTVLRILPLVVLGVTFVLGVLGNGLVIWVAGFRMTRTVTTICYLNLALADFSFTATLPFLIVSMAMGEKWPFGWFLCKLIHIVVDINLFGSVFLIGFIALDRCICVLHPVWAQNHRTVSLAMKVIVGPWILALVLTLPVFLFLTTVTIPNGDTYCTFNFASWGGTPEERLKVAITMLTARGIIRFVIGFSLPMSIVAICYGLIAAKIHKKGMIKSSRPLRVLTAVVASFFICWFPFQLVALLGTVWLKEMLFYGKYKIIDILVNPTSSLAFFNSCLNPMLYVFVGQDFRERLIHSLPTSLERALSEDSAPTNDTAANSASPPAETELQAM
# Assay: Intracellular calcium measurements (FLIPR) in HEK293-hALXR-Gα16 cells, agonistic activity
# Assay type: cell-based
# Details: values normalized to WKYMVm 10 nM
# Procedure: The ALX receptor and FPRL2 agonistic activities of the compounds of formula (I) are determined in accordance with the following experimental method.
# Intracellular Calcium Measurements:
# Cells expressing recombinant human ALX receptor and the G-protein Gα16 (HEK293-hALXR-Gα16) were grown to 80% confluency in Growing Medium (GM). Cells were detached from culture dishes with a cell dissociation buffer (Invitrogen, 13151-014), and collected by centrifugation at 1,000 rpm at rt for 5 min in Assay Buffer (AB) (equal parts of Hank's BSS (Gibco, 14065-049) and DMEM without Phenol Red (Gibco, 11880-028)). After 60 min incubation at 37° C. under 5% CO2 in AB supplemented with 1 μM Fluo-4 (AM) (Invitrogen, F14202), and 20 mM HEPES (Gibco, 15630-056), the cells were washed and resuspended in AB. They were then seeded onto 384-well FLIPR assay plates (Greiner, 781091) at 50,000 cells in 70 μl per well and sedimented by centrifugation at 1,000 rpm for 1 min. Stock solutions of test compounds were made up at a concentration of 10 mM in DMSO, and serially diluted in AB to concentrations required for activation dose response curves. WKYMVm (Phoenix Peptides) was used as a reference agonist. FLIPR384 or FLIPR Tetra instruments (Molecular Devices) were operated according to the manufacturer's standard instructions, adding 4 μl of test compound dissolved at 10 mM in DMSO and diluted prior to the experiment in assay buffer to obtain the desired final concentration. Changes in fluorescence were monitored before and after the addition of test compounds at lex=488 nm and lem=540 nm. Emission peak values above base level after compounds addition were exported after base line subtraction. Values were normalized to high-level control (WKYMVm compound, 10 nM final concentration) after subtraction of the base line value (AB addition).
row,EC50 [nM],Compound
1,77.5,"Cc1cc(CNC(=O)[C@H]2[C@H](C(=O)O[C@H]3CCNC[C@H]3F)[C@H]3CC[C@@H]2C32CC2)on1 (relative stereo) [Example 62, (1S,2R,3R,4R)-[cis-(3-Fluoro-piperidin-4-yl) 2-(((3-methylisoxazol-5-yl)methyl)carbamoyl)spiro[bicyclo[2.2.1]heptane-7,1′-cyclopropane]-3-carboxylate]]"
2,106,"O=C(OC[C@H]1CCNC[C@H]1F)[C@H]1[C@H](C(=O)Nc2ccc(Br)nc2)[C@@H]2CC[C@H]1C21CC1 (relative stereo) [Example 64, (1S,2R,3R,4R)-[(cis-3-Fluoro-piperidin-4-yl)methyl 2-((6-bromopyridin-3-yl)carbamoyl)spiro[bicyclo[2.2.1]heptane-7,1′-cyclopropane]-3-carboxylate]]"
3,406,"Cc1cc(CNC(=O)[C@H]2[C@H](C(=O)OCC3CCCCN3C)[C@H]3CC[C@@H]2C32CC2)no1 (stereo partly drawn) [Example 26, (1S,2R,3R,4R)-[1-Methyl-piperidin-2-ylmethyl 2-(((5-methylisoxazol-3-yl)methyl)carbamoyl)spiro[bicyclo[2.2.1]heptane-7,1′-cyclopropane]-3-carboxylate]]"
4,5.2,"O=C(OCC1CCNCC1)[C@H]1[C@H](C(=O)Nc2ccc(Br)nc2)[C@@H]2CC[C@H]1C21CC1 [Example 41, (1S,2R,3R,4R)-[(Piperidin-4-yl)methyl 2-((6-bromopyridin-3-yl)carbamoyl)spiro[bicyclo[2.2.1]heptane-7,1′-cyclopropane]-3-carboxylate]hydrochloride]"
5,105,"Cc1cc(CNC(=O)[C@H]2[C@H](C(=O)O[C@@H]3CCNC3)[C@H]3CC[C@@H]2C32CC2)no1 [Example 19, (1S,2R,3R,4R)-[(R)-Pyrrolidin-3-yl 2-(((5-methylisoxazol-3-yl)methyl)carbamoyl)spiro[bicyclo[2.2.1]heptane-7,1′-cyclopropane]-3-carboxylate]hydrochloride]"
6,22.7,"Cc1cc(CNC(=O)[C@H]2[C@H](C(=O)OCC3CCNCC3)[C@H]3CC[C@@H]2C32CC2)no1 [Example 3, (1S,2R,3R,4R)-[Piperidin-4-ylmethyl 2-(((5-methylisoxazol-3-yl)methyl)carbamoyl)spiro[bicyclo[2.2.1]heptane-7,1′-cyclopropane]-3-carboxylate]hydrochloride]"
7,30.7,"Cc1cc(CNC(=O)[C@H]2[C@H](C(=O)OCCOCCN3CCCC3)[C@H]3CC[C@@H]2C32CC2)no1 [Example 33, (1S,2R,3R,4R)-[2-(2-(Pyrrolidin-1-yl)ethoxy)ethyl 2-(((5-methylisoxazol-3-yl)methyl)carbamoyl)spiro[bicyclo[2.2.1]heptane-7,1′-cyclopropane]-3-carboxylate]]"
8,14.6,"O=C(OCCCCN1CCCC1)[C@H]1[C@H](C(=O)Nc2ccc(Br)nc2)[C@@H]2CC[C@H]1C21CC1 [Example 54, (1S,2R,3R,4R)-[4-(Pyrrolidin-1-yl)butyl 2-((6-bromopyridin-3-yl)carbamoyl)spiro[bicyclo[2.2.1]heptane-7,1′-cyclopropane]-3-carboxylate]]"
9,107,"Cc1cc(CNC(=O)[C@H]2[C@H](C(=O)OCCC(N)=O)[C@H]3CC[C@@H]2C32CC2)on1 [Example 65, (1S,2R,3R,4R)-[(3-Amino-3-oxopropyl) 2-(((3-methylisoxazol-5-yl)methyl)carbamoyl)spiro[bicyclo[2.2.1]heptane-7,1′-cyclopropane]-3-carboxylate]]"
10,226,"O=C(OCCOCCN1CCCC1)[C@H]1[C@H](C(=O)NCc2ccc(Br)cc2F)[C@@H]2CC[C@H]1C21CC1 [Example 32, (1S,2R,3R,4R)-[2-(2-(Pyrrolidin-1-yl)ethoxy)ethyl 2-((4-bromo-2-fluorobenzyl)carbamoyl)spiro[bicyclo[2.2.1]heptane-7,1′-cyclopropane]-3-carboxylate]]"
11,10.8,"O=C(OCC1CCNCC1)[C@H]1[C@H](C(=O)Nc2ccc(Br)cc2)[C@@H]2CC[C@H]1C21CC1 [Example 50, (1S,2R,3R,4R)-[(Piperidin-4-yl)methyl 2-((4-bromophenyl)carbamoyl)spiro[bicyclo[2.2.1]heptane-7,1′-cyclopropane]-3-carboxylate]hydrochloride]"
12,262,"O=C(OCCC1CCNCC1)[C@H]1[C@H](C(=O)NCc2ccc(Br)cc2F)[C@@H]2CC[C@H]1C21CC1 [Example 72, (1S,2R,3R,4R)-[2-(Piperidin-4-yl)ethyl 2-((4-bromo-2-fluorobenzyl)carbamoyl)spiro[bicyclo[2.2.1]heptane-7,1′-cyclopropane]-3-carboxylate]hydrochloride]"
13,11.9,"O=C(OCCCCN1CC[C@H](F)C1)[C@H]1[C@H](C(=O)Nc2ccc(Br)nc2)[C@@H]2CC[C@H]1C21CC1 [Example 53, (1S,2R,3R,4R)-[(S)-4-(3-Fluoropyrrolidin-1-yl)butyl 2-((6-bromopyridin-3-yl)carbamoyl)spiro[bicyclo[2.2.1]heptane-7,1′-cyclopropane]-3-carboxylate]]"
14,2060,"O=C(OC1CCN(Cc2ccccc2)CC1)[C@H]1[C@H](C(=O)Nc2ccc(Br)nc2)[C@@H]2CC[C@H]1C21CC1 [Example 76, (1S,2R,3R,4R)-[1-Benzyl-piperidin-4-yl 2-((6-bromopyridin-3-yl)carbamoyl)spiro[bicyclo[2.2.1]heptane-7,1′-cyclopropane]-3-carboxylate]]"
15,7.2,"Cc1cc(CNC(=O)[C@H]2[C@H](C(=O)OCCOCCN3CC[C@H](F)C3)[C@H]3CC[C@@H]2C32CC2)on1 [Example 42, (1S,2R,3R,4R)-[(S)-2-(2-(3-Fluoropyrrolidin-1-yl)ethoxy)ethyl 2-(((3-methylisoxazol-5-yl)methyl)carbamoyl)spiro[bicyclo[2.2.1]heptane-7,1′-cyclopropane]-3-carboxylate]]"
16,18.5,"O=C(OCC1(F)CCNCC1)[C@H]1[C@H](C(=O)Nc2ccc(Br)nc2)[C@@H]2CC[C@H]1C21CC1 [Example 55, (1S,2R,3R,4R)-[(4-Fluoro-piperidin-4-yl)methyl 2-((6-bromopyridin-3-yl)carbamoyl)spiro[bicyclo[2.2.1]heptane-7,1′-cyclopropane]-3-carboxylate]]"
17,3740,"O=C(OCCCC(F)(F)CN1CCCC1)[C@H]1[C@H](C(=O)Nc2ccc(Br)nc2)[C@@H]2CC[C@H]1C21CC1 [Example 78, (1S,2R,3R,4R)-[(4,4-Difluoro-5-(pyrrolidin-1-yl))pent-1-yl 2-((6-bromopyridin-3-yl)carbamoyl)spiro[bicyclo[2.2.1]heptane-7,1′-cyclopropane]-3-carboxylate]]"
18,330,"Cc1cc(CNC(=O)[C@H]2[C@H](C(=O)OCCCN(C)C)[C@H]3CC[C@@H]2C32CC2)no1 [Example 25, (1S,2R,3R,4R)-[1-Dimethylaminoprop-3-yl 2-(((5-methylisoxazol-3-yl)methyl)carbamoyl)spiro[bicyclo[2.2.1]heptane-7,1′-cyclopropane]-3-carboxylate]]"
19,281,"O=C(OCCN1CCCC1=O)[C@H]1[C@H](C(=O)Nc2ccc(Br)nc2)[C@@H]2CC[C@H]1C21CC1 [Example 23, (1S,2R,3R,4R)-[2-(2-Oxopyrrolidin-1-yl)ethyl 2-((6-bromopyridin-3-yl)carbamoyl)spiro[bicyclo[2.2.1]heptane-7,1′-cyclopropane]-3-carboxylate]]"
20,3.7,"Cc1cc(CNC(=O)[C@H]2[C@H](C(=O)OCC[C@H]3CCNC[C@H]3F)[C@H]3CC[C@@H]2C32CC2)on1 (relative stereo) [Example 39, (1S,2R,3R,4R)-[2-(cis-3-Fluoro-piperidin-4-yl)ethyl 2-(((3-methylisoxazol-5-yl)methyl)carbamoyl)spiro[bicyclo[2.2.1]heptane-7,1′-cyclopropane]-3-carboxylate]]"
21,270,"O=C(OCCC1CCNCC1(F)F)[C@H]1[C@H](C(=O)Nc2ccc(Br)nc2)[C@@H]2CC[C@H]1C21CC1 (stereo partly drawn) [Example 73, (1S,2R,3R,4R)-[2-(3,3-Difluoro-piperidin-4-yl)ethyl 2-((6-bromopyridin-3-yl)carbamoyl)spiro[bicyclo[2.2.1]heptane-7,1′-cyclopropane]-3-carboxylate]]"

row,Compound,EC50 [nM]
1,"O=C(OCCC1(F)CCNCC1)[C@H]1[C@H](C(=O)Nc2ccc(Br)nc2)[C@@H]2CC[C@H]1C21CC1 [Example 40, (1S,2R,3R,4R)-[2-(4-Fluoro-piperidin-4-yl)ethyl 2-((6-bromopyridin-3-yl)carbamoyl)spiro[bicyclo[2.2.1]heptane-7,1′-cyclopropane]-3-carboxylate]]",4.6
